Laboratory results as given in patent US10526316B2, “Quinoxaline and pyridopyrazine derivatives as PI3Kβ inhibitors” (Janssen Pharmaceutica NV, priority 2015, dated 2020).
Read-outs that look alike come from different tables or passages of the source.

Columns and labels:
kinase enzymes [1] = molecular target: T1, kinase enzymes (Homo sapiens, UniProt P48736); experiment: Enzyme binding assay (KINOMEscan, DiscoveRx), further kinases of Table A; settings: PIK3Cγ_h
T1 construct: purchased DiscoveRx Corporation, San Diego (contract service, KINOMEscan)
T1 sequence (P48736 whole entry): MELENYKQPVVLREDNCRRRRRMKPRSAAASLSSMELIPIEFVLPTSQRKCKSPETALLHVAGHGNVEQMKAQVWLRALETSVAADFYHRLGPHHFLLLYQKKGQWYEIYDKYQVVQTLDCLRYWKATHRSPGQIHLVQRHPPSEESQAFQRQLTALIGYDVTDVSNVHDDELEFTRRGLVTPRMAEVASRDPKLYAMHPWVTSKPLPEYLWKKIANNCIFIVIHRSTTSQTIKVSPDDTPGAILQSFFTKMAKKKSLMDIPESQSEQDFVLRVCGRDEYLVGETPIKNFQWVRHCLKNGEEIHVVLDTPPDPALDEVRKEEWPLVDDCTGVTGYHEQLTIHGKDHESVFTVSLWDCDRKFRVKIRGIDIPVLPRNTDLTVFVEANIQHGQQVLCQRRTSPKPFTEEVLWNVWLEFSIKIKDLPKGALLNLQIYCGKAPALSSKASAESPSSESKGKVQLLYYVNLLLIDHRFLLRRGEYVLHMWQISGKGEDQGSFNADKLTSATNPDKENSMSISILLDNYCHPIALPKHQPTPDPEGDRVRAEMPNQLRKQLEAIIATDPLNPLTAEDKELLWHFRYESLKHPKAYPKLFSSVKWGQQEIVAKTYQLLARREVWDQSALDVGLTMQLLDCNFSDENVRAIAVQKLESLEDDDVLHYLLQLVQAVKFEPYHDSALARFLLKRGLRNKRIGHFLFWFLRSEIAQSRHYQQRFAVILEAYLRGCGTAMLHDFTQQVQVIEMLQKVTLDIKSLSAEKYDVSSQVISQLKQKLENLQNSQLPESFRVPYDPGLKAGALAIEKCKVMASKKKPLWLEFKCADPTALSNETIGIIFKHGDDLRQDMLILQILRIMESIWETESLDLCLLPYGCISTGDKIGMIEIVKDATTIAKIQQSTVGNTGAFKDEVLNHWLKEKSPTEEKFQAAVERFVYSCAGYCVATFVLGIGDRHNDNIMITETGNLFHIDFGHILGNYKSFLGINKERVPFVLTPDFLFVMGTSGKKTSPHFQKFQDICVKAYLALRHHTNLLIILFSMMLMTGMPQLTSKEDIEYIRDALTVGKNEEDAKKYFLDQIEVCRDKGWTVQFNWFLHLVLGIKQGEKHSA
Method in brief: (§1)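 Kinase binding measured via KINOMEscan, reported as affinity.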

kinase enzymes [2] = molecular target: T2, kinase enzymes (Homo sapiens, UniProt P42345); experiment: as above; settings: MTOR_h
T2 construct: purchased DiscoveRx Corporation, San Diego (contract service, KINOMEscan)
Method in brief: as §1

kinase enzymes [3] = molecular target: T3, kinase enzymes (Homo sapiens, UniProt P42336); experiment: as above; settings: PIK3Cα_h
T3 construct: purchased DiscoveRx Corporation, San Diego (contract service, KINOMEscan)
T3 sequence (P42336 whole entry): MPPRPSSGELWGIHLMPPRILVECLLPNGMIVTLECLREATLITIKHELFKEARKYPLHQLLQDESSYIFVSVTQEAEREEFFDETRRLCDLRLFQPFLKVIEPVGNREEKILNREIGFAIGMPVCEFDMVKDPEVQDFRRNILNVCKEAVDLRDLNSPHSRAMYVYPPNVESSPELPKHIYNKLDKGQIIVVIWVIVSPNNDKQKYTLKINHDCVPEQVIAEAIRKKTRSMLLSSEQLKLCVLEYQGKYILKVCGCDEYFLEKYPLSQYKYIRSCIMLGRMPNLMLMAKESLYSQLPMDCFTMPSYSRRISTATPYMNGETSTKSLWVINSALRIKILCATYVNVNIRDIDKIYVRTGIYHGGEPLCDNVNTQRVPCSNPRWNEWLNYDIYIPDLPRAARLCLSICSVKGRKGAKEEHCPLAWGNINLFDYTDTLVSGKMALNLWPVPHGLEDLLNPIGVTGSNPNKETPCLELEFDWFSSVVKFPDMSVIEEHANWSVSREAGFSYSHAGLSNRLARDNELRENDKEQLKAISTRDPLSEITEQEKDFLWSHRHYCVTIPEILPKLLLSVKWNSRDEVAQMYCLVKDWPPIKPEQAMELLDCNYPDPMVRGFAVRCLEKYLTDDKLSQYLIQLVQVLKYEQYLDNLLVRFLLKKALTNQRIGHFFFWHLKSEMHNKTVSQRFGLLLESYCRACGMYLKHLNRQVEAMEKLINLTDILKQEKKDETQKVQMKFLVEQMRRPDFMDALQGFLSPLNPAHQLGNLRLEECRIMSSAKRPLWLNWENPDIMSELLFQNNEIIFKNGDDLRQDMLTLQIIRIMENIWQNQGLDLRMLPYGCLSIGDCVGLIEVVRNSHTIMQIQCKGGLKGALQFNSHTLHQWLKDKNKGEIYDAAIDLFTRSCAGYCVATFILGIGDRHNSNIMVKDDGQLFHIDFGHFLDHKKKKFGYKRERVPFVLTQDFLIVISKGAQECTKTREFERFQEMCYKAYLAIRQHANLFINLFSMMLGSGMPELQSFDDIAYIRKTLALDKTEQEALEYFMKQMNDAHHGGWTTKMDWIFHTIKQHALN
Method in brief: as §1

PI3Kδ = molecular target: T4, PI3Kδ (Homo sapiens, UniProt O00329); experiment: Enzyme binding assay (KINOMEscan, DiscoveRx); settings: PIK3Cδ_h
T4 construct: purchased DiscoveRx Corporation, San Diego (contract service, KINOMEscan)
T4 sequence (O00329 1-1044): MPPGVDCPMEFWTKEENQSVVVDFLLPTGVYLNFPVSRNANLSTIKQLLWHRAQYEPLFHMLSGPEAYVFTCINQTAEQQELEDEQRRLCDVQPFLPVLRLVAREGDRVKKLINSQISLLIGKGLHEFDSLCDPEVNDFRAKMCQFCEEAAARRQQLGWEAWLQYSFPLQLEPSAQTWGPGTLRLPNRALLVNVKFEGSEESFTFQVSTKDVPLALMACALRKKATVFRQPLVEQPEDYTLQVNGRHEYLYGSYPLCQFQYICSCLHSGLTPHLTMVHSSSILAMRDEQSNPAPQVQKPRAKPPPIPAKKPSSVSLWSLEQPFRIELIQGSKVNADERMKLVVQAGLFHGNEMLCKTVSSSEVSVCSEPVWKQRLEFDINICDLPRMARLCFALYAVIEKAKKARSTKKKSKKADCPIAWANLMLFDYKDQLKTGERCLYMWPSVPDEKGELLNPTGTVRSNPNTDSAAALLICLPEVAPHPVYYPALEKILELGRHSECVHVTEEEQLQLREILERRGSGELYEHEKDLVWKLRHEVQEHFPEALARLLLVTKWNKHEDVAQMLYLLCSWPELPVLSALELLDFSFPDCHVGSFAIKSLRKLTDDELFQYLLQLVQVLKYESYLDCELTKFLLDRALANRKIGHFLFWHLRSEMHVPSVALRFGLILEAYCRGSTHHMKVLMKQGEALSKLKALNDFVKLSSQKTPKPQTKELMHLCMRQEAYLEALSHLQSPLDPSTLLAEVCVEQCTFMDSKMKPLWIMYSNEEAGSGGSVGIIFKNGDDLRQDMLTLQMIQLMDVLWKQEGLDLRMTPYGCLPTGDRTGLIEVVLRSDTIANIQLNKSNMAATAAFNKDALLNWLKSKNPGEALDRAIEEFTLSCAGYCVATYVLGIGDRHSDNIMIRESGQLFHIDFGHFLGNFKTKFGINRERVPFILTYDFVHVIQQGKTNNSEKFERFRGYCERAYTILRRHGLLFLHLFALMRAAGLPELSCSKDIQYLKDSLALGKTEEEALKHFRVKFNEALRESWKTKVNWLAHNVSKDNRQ
Method in brief: as §1

[4] = system: Akt phosphorylated at Ser473 in PC-3 cells; experiment: Cellular assay: phosphorylation of Akt at Ser473 in PC-3 cells (MSD ELISA); format: cell-based; settings: PC-3 cells, 60 min compound incubation, MSD ELISA, read-out: IC50 pAkt_S473
Method in brief: (§2)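 PC-3 cells were exposed to compound or 0.3% DMSO for 60 min at 37° C, 5% CO2, then lysed in ice-cold buffer. Phospho-Akt was captured on site-specific antibody-coated plates and detected with Sulfo-tag anti-total Akt by electrochemiluminescence. IC50 values came from five-concentration response curves.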

[5] = system: Akt phosphorylated at Thr308 in PC-3 cells; experiment: Cellular assay: phosphorylation of Akt at Thr308 in PC-3 cells (MSD ELISA); format: cell-based; settings: PC-3 cells, 60 min compound incubation, MSD ELISA, read-out: IC50 pAkt_Thr308
Method in brief: as §2

PI3Kβ = molecular target: T5, PI3Kβ (Homo sapiens, UniProt P42338); experiment: Enzyme binding assay (KINOMEscan, DiscoveRx); settings: PIK3Cβ_h, read-out: Kd PIK3Cβ_h
T5 construct: purchased DiscoveRx Corporation, San Diego (contract service, KINOMEscan)
T5 sequence (P42338 whole entry): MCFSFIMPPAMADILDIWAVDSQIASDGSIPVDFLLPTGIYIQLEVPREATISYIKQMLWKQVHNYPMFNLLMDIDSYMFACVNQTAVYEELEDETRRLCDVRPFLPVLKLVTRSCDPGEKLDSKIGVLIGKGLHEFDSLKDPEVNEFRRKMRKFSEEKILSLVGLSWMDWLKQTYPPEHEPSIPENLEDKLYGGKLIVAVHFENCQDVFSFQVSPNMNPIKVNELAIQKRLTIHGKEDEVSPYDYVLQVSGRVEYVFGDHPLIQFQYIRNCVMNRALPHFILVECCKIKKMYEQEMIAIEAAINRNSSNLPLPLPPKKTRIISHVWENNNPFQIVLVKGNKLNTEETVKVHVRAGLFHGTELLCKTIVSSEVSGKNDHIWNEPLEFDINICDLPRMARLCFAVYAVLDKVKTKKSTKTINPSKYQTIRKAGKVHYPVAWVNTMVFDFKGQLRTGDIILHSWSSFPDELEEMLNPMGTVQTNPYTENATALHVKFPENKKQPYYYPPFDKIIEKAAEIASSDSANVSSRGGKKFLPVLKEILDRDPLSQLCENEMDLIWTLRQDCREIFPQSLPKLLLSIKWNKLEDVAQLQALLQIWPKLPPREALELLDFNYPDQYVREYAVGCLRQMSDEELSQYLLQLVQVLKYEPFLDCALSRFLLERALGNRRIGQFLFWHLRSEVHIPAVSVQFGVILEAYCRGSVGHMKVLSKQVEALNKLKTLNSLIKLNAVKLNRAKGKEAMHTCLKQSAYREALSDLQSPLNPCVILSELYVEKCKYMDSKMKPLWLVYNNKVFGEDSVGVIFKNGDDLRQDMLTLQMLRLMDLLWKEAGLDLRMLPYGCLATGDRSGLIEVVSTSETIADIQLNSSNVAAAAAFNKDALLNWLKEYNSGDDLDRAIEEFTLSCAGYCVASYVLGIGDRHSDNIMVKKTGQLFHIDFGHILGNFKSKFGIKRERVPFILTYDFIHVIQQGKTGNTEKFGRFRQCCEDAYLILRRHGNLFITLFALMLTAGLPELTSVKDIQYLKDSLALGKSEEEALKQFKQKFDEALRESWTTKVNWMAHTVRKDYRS
Method in brief: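 Reported Kd (nM) reflects inhibitor binding to the kinase, as measured by KINOMEscan technology.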

Structure (SMILES)	Kd (kinase enzymes [1])	Kd (kinase enzymes [2])	Kd (kinase enzymes [3])	melting point	Kd (PI3Kδ)	IC50 [4]	IC50 [5]	Kd (PI3Kβ)	IC50 ([4]; Homo sapiens, PC-3, 1 h)	IC50 ([5]; Homo sapiens, PC-3, 1 h)
Cc1cc(C2CCCN2c2cc(F)cc(F)c2)c2nc(N3CCOCC3)cnc2c1 (single isomer, unassigned) [Compound 106]	3.31 µM	> 30.2 µM	3.16 µM	80 °C	1 µM	0.105 µM	0.062 µM	0.006 µM		
CN(C)C(=O)c1cc(N2CCCC2c2cc(F)cc(F)c2)c2nc(N3CCOCC3)cnc2c1 (centres unmarked) [Compound 395]	14.1 µM	18.2 µM	3.47 µM	80 °C	2.24 µM			0.033 µM	> 0.513 µM	> 0.513 µM
CN[C@H]1CCN(C(=O)c2cc(C(C)Oc3ccc(F)c(F)c3)c3nc(N4CCOCC4)cnc3c2)C1 (single isomer, unassigned) [Compound 370b]	> 30.2 µM	> 30.2 µM	> 30.2 µM	80 °C	15.5 µM	> 0.513 µM	> 0.513 µM	0.55 µM		
CC(Nc1cc(F)cc(F)c1)c1cc(C(=O)NCCOCCN)cc2ncc(N3CCOCC3)nc12 (centres unmarked) [Compound 149]	2.34 µM	> 30.2 µM	2.95 µM	80 °C	0.398 µM			0.002 µM	0.251 µM	0.138 µM
Fc1cc(F)cc(N2CCCC2c2cncc3ncc(N4CCOCC4)nc23)c1 (single isomer, unassigned) [Compound 24]	0.372 µM	18.6 µM	0.302 µM	100 °C	0.245 µM	0.036 µM	0.03 µM	0.001 µM		
NC1CCN(C(=O)c2cc(C3CCCN3c3cc(F)cc(F)c3)c3nc(N4CCOCC4)cnc3c2)CC1 (centres unmarked) [Compound 75]	0.004 µM	> 30.2 µM	0.03 µM	80 °C	0.002 µM			0.0001 µM	0.002 µM	0.001 µM
CC(Nc1cccc(F)c1)c1cc(C(=O)NCC(=O)O)cc2ncc(N3CCOCC3)nc12 (single isomer, unassigned) [Compound 393a]	1.38 µM	6.76 µM	0.437 µM	115 °C	1.23 µM			0.011 µM	> 0.513 µM	> 0.513 µM
CC(Nc1cc(F)cc(Cl)c1)c1cc(C(=O)N2CCOCC2)cc2ncc(N3CCOCC3)nc12 (centres unmarked) [Compound 146]	8.13 µM	> 30.2 µM	1.91 µM	80 °C	0.933 µM			0.002 µM	0.083 µM	0.038 µM
CC(Nc1cccc(C#N)c1)c1cc(C(=O)N2CCOCC2)cc2ncc(N3CCOCC3)nc12 (centres unmarked) [Compound 131]	20 µM	> 30.2 µM	3.16 µM	80 °C	2.51 µM			0.011 µM	0.501 µM	0.363 µM
CCN1CCN(C(=O)c2cc(C(C)Nc3cccc(F)c3)c3nc(N4CCOCC4)cnc3c2)CC1 (single isomer, unassigned) [Compound 114]	6.92 µM	> 30.2 µM	1.62 µM	303 °C	0.186 µM	0.05 µM	0.018 µM	0.001 µM		
OCCCNCc1cc(C2CCCN2c2cc(F)cc(F)c2)c2nc(N3CCOCC3)cnc2c1 (single isomer, unassigned) [Compound 102]	0.398 µM	> 30.2 µM	0.245 µM	80 °C	0.031 µM			0.0002 µM	0.022 µM	0.023 µM
COC(=O)c1cc(C2CCCN2c2cc(F)cc(F)c2)c2nc(N3CCOCC3)cnc2c1 (single isomer, unassigned) [Compound 249]	2.4 µM	> 30.2 µM	0.794 µM	211 °C	0.955 µM	0.071 µM	0.052 µM	0.004 µM		
CC(Nc1ccc(F)c(F)c1)c1cc(C(=O)N2CCC[C@H](O)C2)cc2ncc(N3CCOCC3)nc12 (single isomer, unassigned) [Compound 302a]	> 30.2 µM	> 30.2 µM	> 30.2 µM	135 °C	> 30.2 µM			1.32 µM	> 0.513 µM	> 0.513 µM
CN(C)C(=O)c1cc(C2CCCN2c2ccc(C#N)c(F)c2)c2nc(N3CCOCC3)cnc2c1 (centres unmarked) [Compound 54]	> 30.2 µM	26.9 µM	16.2 µM	80 °C	7.08 µM			0.115 µM	> 0.513 µM	> 0.513 µM
CC(Oc1cc(F)cc(F)c1)c1cc(C(=O)NCCO)cc2ncc(N3CCOCC3)nc12 (single isomer, unassigned) [Compound 199]	11.7 µM	28.8 µM	4.9 µM	140 °C	5.49 µM			0.068 µM	> 0.513 µM	0.309 µM
CNCCNC(=O)c1cc([C@H](C)Oc2cccc(F)c2)c2nc(N3CCOCC3)cnc2c1 [Compound 123a]	11.5 µM	17 µM	10.2 µM	130 °C	5.13 µM	> 0.513 µM	0.38 µM	0.107 µM		
